pIC50: −log10 of the molar value.
Key:
pJNK in HCT-116 cells = assay: Phospho-JNK (Thr183/Tyr185) Meso Scale ELISA assay, TNFα-stimulated HCT-116 cells; format: cell-based; settings: Homo sapiens, read-out: mean HCT-116 pJNK ELISA IC50 (Col. B)
How it was run: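 Meso Scale ELISA read of phospho-JNK (Thr183/Tyr185) in lysed HCT-116 cells. Cells were serum-reduced to 1% FCS for 2 hours, exposed to test drug for 4 hrs at 37° C, then given 10 ng/mL TNFα (final) for 10 minutes before lysis.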

TAK1-TAB1 fusion protein = biological target: T1, TAK1-TAB1 fusion protein (Homo sapiens, UniProt O43318); assay: TAK1 biochemical assay (AlphaScreen, GST-MAP2K7 substrate); settings: TAK1-TAB1 fusion protein, GST-MAP2K7 substrate; read-out: mean TAK1 IC50 (Col. A)
T1 construct: purchased Carna
T1 sequence (O43318 with tags, fused parts or gaps limits assumed): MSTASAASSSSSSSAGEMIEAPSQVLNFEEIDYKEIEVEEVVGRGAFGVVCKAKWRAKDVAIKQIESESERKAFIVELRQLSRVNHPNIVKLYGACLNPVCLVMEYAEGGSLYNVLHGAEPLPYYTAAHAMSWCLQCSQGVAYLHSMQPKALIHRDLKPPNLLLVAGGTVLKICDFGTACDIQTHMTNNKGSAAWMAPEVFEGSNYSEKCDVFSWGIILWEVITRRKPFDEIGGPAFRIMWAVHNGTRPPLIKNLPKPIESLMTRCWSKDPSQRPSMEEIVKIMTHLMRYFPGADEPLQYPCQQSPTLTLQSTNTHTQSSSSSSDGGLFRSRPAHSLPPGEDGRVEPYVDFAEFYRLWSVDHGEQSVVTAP

p-p38 in HCT-116 cells = assay: Phospho-p38 Meso Scale ELISA assay, TNFα-stimulated HCT-116 cells; format: cell-based; settings: Homo sapiens, read-out: mean HCT-116 p-p38 ELISA IC50 (Col. C)
How it was run: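 Phospho-p38 measured by Meso Scale ELISA on diluted lysates, captured overnight at 4° C. Before lysis, HCT-116 cells were serum-reduced (1% FCS, 2 h), treated with compounds 4 h at 37° C and stimulated 10 min with 10 ng/mL TNFα final.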

SMILES	pIC50 (pJNK in HCT-116 cells)	pIC50 (TAK1-TAB1 fusion protein)	pIC50 (p-p38 in HCT-116 cells)
CC(=O)N1CCC(n2cc(-c3cnc(N)c4oc(-c5ccc(O)c(Cl)c5)cc34)cn2)CC1 [Example 136, 1-(4-{4-[7-amino-2-(3-chloro-4-hydroxyphenyl)furo[2,3-c]pyridin-4-yl]-1H-pyrazol-1-yl}piperidin-1-yl)ethanone]	6.00 to 7.00	6.00 to 7.00	5.00 to 6.00
CC(=O)N1CCC(n2cc(-c3cnc(N)c4oc(-c5cc(C)c(O)c(C)c5)cc34)cn2)CC1 [Example 138, 1-(4-{4-[7-amino-2-(4-hydroxy-3,5-dimethylphenyl)furo[2,3-c]pyridin-4-yl]-1H-pyrazol-1-yl}piperidin-1-yl)ethanone]	6.00 to 7.00	5.00 to 6.00	5.00 to 6.00
CC(=O)N1CCC(n2cc(-c3cnc(N)c4oc(C5=CCCCC5)cc34)cn2)CC1 [Example 142, 1-(4-{4-[7-amino-2-(cyclohex-1-en-1-yl)furo[2,3-c]pyridin-4-yl]-1H-pyrazol-1-yl}piperidin-1-yl)ethanone]	6.00 to 7.00	6.00 to 7.00	5.00 to 6.00
CC(=O)N1CCC(n2cc(-c3cnc(N)c4oc(-c5cccc(C#N)c5)cc34)cn2)CC1 [Example 143, 3-{4-[1-(1-acetylpiperidin-4-yl)-1H-pyrazol-4-yl]-7-aminofuro[2,3-c]pyridin-2-yl}benzonitrile]	6.00 to 7.00	6.00 to 7.00	6.00 to 7.00
CC(=O)N1CCC(n2cc(-c3cnc(N)c4oc(-c5ccc6nn(C)cc6c5)cc34)cn2)CC1 [Example 145, 1-(4-{4-[7-amino-2-(2-methyl-2H-indazol-5-yl)furo[2,3-c]pyridin-4-yl]-1H-pyrazol-1-yl}piperidin-1-yl)ethanone]	5.00 to 6.00	< 5.00	5.00 to 6.00
CC(=O)N1CCC(n2cc(-c3cnc(N)c4oc(-c5ccc6c(cnn6C)c5)cc34)cn2)CC1 [Example 146, 1-(4-{4-[7-amino-2-(1-methyl-1H-indazol-5-yl)furo[2,3-c]pyridin-4-yl]-1H-pyrazol-1-yl}piperidin-1-yl)ethanone]	6.00 to 7.00	5.00 to 6.00	5.00 to 6.00
CC(=O)N1CCC(n2cc(-c3cnc(N)c4oc(-c5ccc6c(c5)CCC(=O)N6)cc34)cn2)CC1 [Example 154, 6-{4-[1-(1-acetylpiperidin-4-yl)-1H-pyrazol-4-yl]-7-aminofuro[2,3-c]pyridin-2-yl}-3,4-dihydroquinolin-2(1H)-one]	5.00 to 6.00	6.00 to 7.00	5.00 to 6.00
CC(=O)N1CCC(n2cc(-c3cnc(N)c4oc(-c5ccc6[nH]nnc6c5)cc34)cn2)CC1 [Example 158, 1-(4-{4-[7-amino-2-(1H-benzotriazol-5-yl)furo[2,3-c]pyridin-4-yl]-1H-pyrazol-1-yl}piperidin-1-yl)ethanone]	< 5.00	> 7.00	< 5.00
CC(=O)N1CCC(n2cc(-c3cnc(N)c4oc(-c5cccc(CO)c5)cc34)cn2)CC1 [Example 169, 1-[4-(4-{7-amino-2-[3-(hydroxymethyl)phenyl]furo[2,3-c]pyridin-4-yl}-1H-pyrazol-1-yl)piperidin-1-yl]ethanone]	6.00 to 7.00	6.00 to 7.00	5.00 to 6.00
CC(=O)N1CCC(n2cc(-c3cnc(N)c4oc(-c5c(C)n[nH]c5C)cc34)cn2)CC1 [Example 180, 1-(4-{4-[7-amino-2-(3,5-dimethyl-1H-pyrazol-4-yl)furo[2,3-c]pyridin-4-yl]-1H-pyrazol-1-yl}piperidin-1-yl)ethanone]	5.00 to 6.00	6.00 to 7.00	5.00 to 6.00
CC(=O)N1CCC(n2cc(-c3cnc(N)c4oc(-c5cccc6c5OC(F)(F)O6)cc34)cn2)CC1 [Example 191, 1-(4-{4-[7-amino-2-(2,2-difluoro-1,3-benzodioxol-4-yl)furo[2,3-c]pyridin-4-yl]-1H-pyrazol-1-yl}piperidin-1-yl)ethanone]	6.00 to 7.00	6.00 to 7.00	6.00 to 7.00
CC(=O)N1CCC(n2cc(-c3cnc(N)c4oc(-c5cccc6ccnn56)cc34)cn2)CC1 [Example 197, 1-(4-{4-[7-amino-2-(pyrazolo[1,5-a]pyridin-7-yl)furo[2,3-c]pyridin-4-yl]-1H-pyrazol-1-yl}piperidin-1-yl)ethanone]	6.00 to 7.00	6.00 to 7.00	6.00 to 7.00
CC(=O)N1CCC(n2cc(-c3cnc(N)c4oc(-c5cccc(OCC#N)c5)cc34)cn2)CC1 [Example 205, (3-{4-[1-(1-acetylpiperidin-4-yl)-1H-pyrazol-4-yl]-7-aminofuro[2,3-c]pyridin-2-yl}phenoxy)acetonitrile]	6.00 to 7.00	6.00 to 7.00	6.00 to 7.00

Results, then the molecule that gave them:

pIC50 (pJNK in HCT-116 cells)	pIC50 (TAK1-TAB1 fusion protein)	pIC50 (p-p38 in HCT-116 cells)	SMILES
6.00 to 7.00	6.00 to 7.00	6.00 to 7.00	CC(=O)N1CCC(n2cc(-c3cnc(N)c4oc(-c5ccc(O)cc5C)cc34)cn2)CC1 [Example 135, 1-(4-{4-[7-amino-2-(4-hydroxy-2-methylphenyl)furo[2,3-c]pyridin-4-yl]-1H-pyrazol-1-yl}piperidin-1-yl)ethanone]
< 5.00	5.00 to 6.00	< 5.00	CC(=O)N1CCC(n2cc(-c3cnc(N)c4oc(-c5cnn(Cc6cccnc6)c5)cc34)cn2)CC1 [Example 148, 1-[4-(4-{7-amino-2-[1-(pyridin-3-ylmethyl)-1H-pyrazol-4-yl]furo[2,3-c]pyridin-4-yl}-1H-pyrazol-1-yl)piperidin-1-yl]ethanone]
6.00 to 7.00	5.00 to 6.00	5.00 to 6.00	CC(=O)N1CCC(n2cc(-c3cnc(N)c4oc(-c5ccccc5)cc34)cn2)CC1 [Example 149, 1-{4-[4-(7-amino-2-phenylfuro[2,3-c]pyridin-4-yl)-1H-pyrazol-1-yl]piperidin-1-yl}ethanone]
6.00 to 7.00	6.00 to 7.00	5.00 to 6.00	CC(=O)N1CCC(n2cc(-c3cnc(N)c4oc(-c5cnc6[nH]ccc6c5)cc34)cn2)CC1 [Example 155, 1-(4-{4-[7-amino-2-(1H-pyrrolo[2,3-b]pyridin-5-yl)furo[2,3-c]pyridin-4-yl]-1H-pyrazol-1-yl}piperidin-1-yl)ethanone]
5.00 to 6.00	6.00 to 7.00	5.00 to 6.00	CC(=O)N1CCC(n2cc(-c3cnc(N)c4oc(-c5ccccc5C#N)cc34)cn2)CC1 [Example 171, 2-{4-[1-(1-acetylpiperidin-4-yl)-1H-pyrazol-4-yl]-7-aminofuro[2,3-c]pyridin-2-yl}benzonitrile]
5.00 to 6.00	6.00 to 7.00	5.00 to 6.00	CC(=O)N1CCC(n2cc(-c3cnc(N)c4oc(-c5ccsc5)cc34)cn2)CC1 [Example 174, 1-(4-{4-[7-amino-2-(thiophen-3-yl)furo[2,3-c]pyridin-4-yl]-1H-pyrazol-1-yl}piperidin-1-yl)ethanone]
6.00 to 7.00	> 7.00	6.00 to 7.00	CC(=O)N1CCC(n2cc(-c3cnc(N)c4oc(-c5cccc6[nH]ccc56)cc34)cn2)CC1 [Example 176, 1-(4-{4-[7-amino-2-(1H-indol-4-yl)furo[2,3-c]pyridin-4-yl]-1H-pyrazol-1-yl}piperidin-1-yl)ethanone]
6.00 to 7.00	> 7.00	6.00 to 7.00	CC(=O)N1CCC(n2cc(-c3cnc(N)c4oc(-c5cccc6[nH]ncc56)cc34)cn2)CC1 [Example 177, 1-(4-{4-[7-amino-2-(1H-indazol-4-yl)furo[2,3-c]pyridin-4-yl]-1H-pyrazol-1-yl}piperidin-1-yl)ethanone]
> 7.00	> 7.00	6.00 to 7.00	CC(=O)N1CCC(n2cc(-c3cnc(N)c4oc(-c5csc6cnccc56)cc34)cn2)CC1 [Example 189, 1-(4-{4-[7-amino-2-(thieno[2,3-c]pyridin-3-yl)furo[2,3-c]pyridin-4-yl]-1H-pyrazol-1-yl}piperidin-1-yl)ethanone]
5.00 to 6.00	5.00 to 6.00	5.00 to 6.00	CC(=O)N1CCC(n2cc(-c3cnc(N)c4oc(-c5cccc6nn(C)cc56)cc34)cn2)CC1 [Example 192, 1-(4-{4-[7-amino-2-(2-methyl-2H-indazol-4-yl)furo[2,3-c]pyridin-4-yl]-1H-pyrazol-1-yl}piperidin-1-yl)ethanone]
6.00 to 7.00	6.00 to 7.00	6.00 to 7.00	CC(=O)N1CCC(n2cc(-c3cnc(N)c4oc(-c5c[nH]c6cc(F)ccc56)cc34)cn2)CC1 [Example 213, 1-(4-{4-[7-amino-2-(6-fluoro-1H-indol-3-yl)furo[2,3-c]pyridin-4-yl]-1H-pyrazol-1-yl}piperidin-1-yl)ethanone]
6.00 to 7.00	6.00 to 7.00	6.00 to 7.00	CC(=O)N1CCC(n2cc(-c3cnc(N)c4oc(-c5ccccc5CC#N)cc34)cn2)CC1 [Example 215, (2-{4-[1-(1-acetylpiperidin-4-yl)-1H-pyrazol-4-yl]-7-aminofuro[2,3-c]pyridin-2-yl}phenyl)acetonitrile]

Source: patent US8378104B2 (OSI Pharmaceuticals, LLC, priority 2010, dated 2013)
